Laboratory results as given in US8450333B2, “Molecules for regulating cell death” (The Regents of The University of California, priority 2003, dated 2013).

Key:
wild type yeast cells = experiment: Mitochondrial morphology in yeast (secondary screen, mitochondrial targeted GFP); format: cell-based, S. cerevisiae
Source text: Secondary screens: Compounds identified in the primary growth assay-based screens outlined above are screened secondarily by examining their effects on mitochondrial morphology. We use the steady state structure of mitochondria as an indicator of the relative rates of mitochondrial fission and fusion in cells. […] Mitochondria are visualized using a mitochondrial targeted GFP that is efficiently targeted to both wild type and respiratory deficient mitochondria (Tieu et al., 2000 The Journal of Cell Biology 151, 353-365.).
All compounds identified in the primary growth assay-based screens outlined above were screened secondarily by examining their effects on mitochondrial morphology in yeast. From previous work, we know that the steady state structure of mitochondria is an indicator of the relative rates of mitochondrial fission and fusion in cells (FIG. 7). Specifically, net-like structures indicate a block in fission, and fragmented mitochondrial structures indicate a block in fusion. […] In this secondary assay, small molecules were judged to be a hit if they produced a mutant phenotype in greater than 5% of the cell population.
To determine what structural features are important for the effects of mfisi-1 on mitochondrial fission, we identified structurally related molecules using a chemoinformatics approach. We utilized web-based ChemNavigator to search available public and commercial compound databases for small molecules that uniquely represented key structural features of mfisi-1. We tested a total of 15 small molecules related to mfisi-1 for their effects on mitochondrial morphology in yeast, each at a concentration of 50 μM (Table 3).

mammalian COS cells = experiment: Mitochondrial morphology in mammalian COS cells; format: cell-based
Source text: Drp1, the mammalian mitochondrial fission DRP, has a high degree of similarity and identity to its yeast ortholog, Dnm1. This encouraged us to exploit the chemical genetic approach and examine the effects of mfisi-1 on mitochondrial morphology in mammalian cells. In mammalian cells, it has been established that when fission is retarded by expression of dominant-negative Drp1, mitochondria become progressively more interconnected, form net-like structures, and collapse into degenerate perinuclear structures in cells. Remarkably, the addition of mfisi-1 to mammalian COS cells in culture caused a rapid and reversible change in mitochondrial morphology equivalent to that observed upon expression of dominant negative Drp1 in double-binded experiments (FIG. 12, n=100: untreated; 0% collapsed nets, 14% loose nets, 70% reticular, 15% fragmented; mfisi-1 treated; n=100, 19% collapsed nets, 45% loose nets, 36% reticular, 0% fragmented). The EC50 of mfisi-1 effects on mitochondrial morphology in mammalian cells is similar to that observed for the effect of mfisi-1 on mitochondrial morphology in yeast (EC50=10 µM).

Δdnm1 cells = experiment: Mitochondrial morphology in Δdnm1 yeast cells; format: cell-based
Source text: Formally, the small molecules we identified could produce their phenotypes by either inhibiting or activating fission or fusion. To distinguish the exact effects of mfisi-1 and other small molecules identified in our screens on mitochondrial dynamics, we have directly measured the rates of fission and fusion events after drug addition in yeast cells by examining the behavior of mitochondria using time-lapse fluorescence microscopy. […] In contrast, in DMSO treated control cells, both fission and fusion events were easily detected in the same time frame.
To determine the target of mfisi-2, we will characterize this small molecule using the assays for fission. We will also determine whether mfisi-2 affects mitochondrial morphology in mammalian cells. If this is the case, then mfisi-2 might inhibit mitochondrial fission by affecting conserved fission-related activities. […] If mfisi-2 produces mitochondrial net-like structures in mammalian cells, we will determine its effects on apoptosis as described previously. Prioritization and characterization of potential mitochondrial fusion inhibitors In our screens for mitochondrial fusion inhibitors, we identified a total of 37 compounds. […] To determine whether fragmentation in drug-treated cells is strictly dependent upon Dnm1-dependent fission, we determined the effects of these small molecules on mitochondrial morphology in Δdnm1 cells. […]

[1] = Structure Function Analysis of A1, A2, and A3, fraction of yeast cells
[2] = fraction of wild type yeast cells

COc1cc(-n2c(S)nc3ccccc3c2=O)c(Cl)cc1Cl [mfisi-1, 3-(2,4-Dichloro-5-methoxy-phenyl)-2-mercapto-3H-quinazolin-4-one]
effect on mitochondrial morphology in yeast cells (wild type yeast cells): caused the formation of mitochondrial net-like structures | IC50 (wild type yeast cells; Saccharomyces cerevisiae, read-out: IC50, formation of net-like mitochondria): 10 to 20 µM | Fragmented (wild type yeast cells; [1]): .05 | Nets (wild type yeast cells; [1]): .55 | Reticular (wild type yeast cells; [1]): .40 | Mitochondrial Morphology after Drug is Added: Fragmented (wild type yeast cells; [2]): .05 | Mitochondrial Morphology after Drug is Added: Nets (wild type yeast cells; [2]): .55 | Mitochondrial Morphology after Drug is Added: Reticular (wild type yeast cells; [2]): .40 | time after addition until net-like mitochondria form (wild type yeast cells; wild type cells, sub-μM concentrations): ≤ 1 min | % net-like structures (wild type yeast cells; yeast, each at a concentration of 50 μM): 60% | % collapsed nets (mammalian COS cells; COS cells, n=100): 19% | % fragmented (mammalian COS cells; COS cells, n=100): 0% | % loose nets (mammalian COS cells; COS cells, n=100): 45% | % reticular (mammalian COS cells; COS cells, n=100): 36% | EC50 (mammalian COS cells; COS, mammalian cells, similar to yeast, read-out: EC50, effects on mitochondrial morphology): 10 µM | effect on mitochondrial morphology in Δdnm1 cells (Δdnm1 cells): did not change the net-like morphology
